Measurements reported in US6534676B2, “Method to treat chronic heart failure and/or elevated cholesterol levels using 3,5-diiodothyropropionic acid and method to prepare same” (The Arizona Board of Regents on Behalf of the University of …, priority 2001, dated 2003).

Assay: Double-blind DITPA versus placebo study in patients with congestive heart failure: clinical effects and tolerability
Type: in vivo, human
Conditions: for Weight: baseline 98.7 ± 6.6, mean ± SE; for NY Heart Association functional class: baseline 2.5 ± 0.2; for Diastolic Blood Pressure: baseline 75.8 ± 4.2; for Heart Rate: baseline 81.3 ± 4.4; for Systolic Blood Pressure: baseline 122.8 ± 4.9
Procedure: In clinical trials discussed below wherein DITPA was orally administered to volunteers and patients, the DITPA was mixed under the supervision of a registered pharmacist with lactose and packed into gelatin capsules containing 50 mg of the active ingredient. Identical capsules were packed with lactose to serve as placebo medication.
Patients were eligible for enrollment in these clinical studies if they had symptoms of heart failure and an ejection fraction of less than 35%. Patients were required to be in sinus rhythm. Treatment with digitalis, angiotensin converting enzyme inhibitors, and diuretics were allowed, but β-adrenergic blocking agents were not permitted.
Three patients in the placebo group and one patient receiving DITPA were taking an HMG-CoA reductase inhibitor. Patients were excluded from the study if they were receiving amiodarone, had unstable angina, myocardial infarction within 6 months, significant aortic stenosis, hepatic or renal insufficiency, anemia (hematocrit<30%), pre-existent thyroid disease, sensitivity to iodine, active cancer or any other life-threatening disease.
All patients were hospitalized before initiating treatment and a right heart catheterization, radionuclide ejection fraction and echocardiogram were performed. Serum samples were drawn for measurement of thyrotropin, total T4, free T4, and reverse T3.
DITPA cross-reacted with antibodies for detection of T3, which consequently was not measured. Renal and hepatic function tests also were performed. Patients were randomly assigned in double-blind fashion to receive either DITPA at a dosage of 1.875 mg/kg daily or placebo in two or three divided doses. For the first four days of drug administration patients were monitored on a telemetry unit. Thereafter, weekly electrocardiograms were performed and patients were examined for changes in thyroid or cardiac status or evidence of drug toxicity.
At the end of two weeks an echocardiogram was obtained. If there was no clinical evidence of progression of heart failure or development of an arrhythmia the dose of DITPA was increased to 3.75 mg/kg daily. After an additional two weeks of treatment with the higher dosage of the drug patients were readmitted to the hospital and the tests performed in the initial evaluation were repeated.
M-mode, two-dimensional, and Doppler echocardiograms were obtained with an ultrasonographic system equipped with a […] transducer (GE VingMed, Milwaukee, Wis.) according to the recommendation of the American Society of Echocardiography. Ejection fraction was measured by gated radionuclide myocardial imaging.
Twenty-two patients underwent the initial right heart catheterization and were randomized to receive the subject drug or placebo. Nineteen patients completed the study (mean age 61.6, range 47 to 76). Patient functional classes, according to the New York Heart Association classification were II (n=12), III (n=7). One patient had dilated cardiomyopathy. The remaining patients had coronary artery disease, which was considered to be the most likely etiology of congestive heart failure. There was one death in a patient receiving placebo. One patient in the DITPA group was withdrawn because of abdominal pain and subsequently found to have cholelithiasis.

[1] = heart failure patients, after 2 weeks (1.875 mg/kg daily)
[2] = heart failure patients, after 4 weeks (3.75 mg/kg daily)

For O=C(O)CCc1cc(I)c(Oc2ccc(O)cc2)c(I)c1 [DITPA, 3,5-Diiodothyropropionic acid], the arrhythmias (heart failure patients) was “No arrhythmias were noted”, the “clinical manifestations of hyperthyroidism” value (heart failure patients) was “not observed” and the “frequency or severity of anginal attacks” value (heart failure patients) was “no increase in frequency or severity of anginal attacks”. For the same compound, the Weight (heart failure patients n=9, after 4 weeks (last 2 weeks 3.75 mg/kg daily)) was 94.7 ± 18.8 kg, the Weight (heart failure patients n=9, oral, after 2 weeks (1.875 mg/kg daily)) was 98.2 ± 19.3 kg and the “decrease in body weight” value (heart failure patients, DITPA group, after 4 weeks, P=0.059 vs placebo) was 4 kg. For the same compound, the “NY Heart Association functional class” value [1] was 2.4 ± 0.2, the “Diastolic Blood Pressure” value [1] was 65.7 ± 3.3 mm Hg and the “Heart Rate” value [1] was 83.4 ± 6.5 beats/min. For the same compound, the “Systolic Blood Pressure” value [1] was 116.2 ± 7.4 mm Hg, the “NY Heart Association functional class” value [2] was 2.5 ± 0.2 and the “Radionuclide Ejection Fraction” value (heart failure patients, after 4 weeks (3.75 mg/kg daily), baseline 18.1 ± 2.4) was 20.6 ± 3.2%. The “Diastolic Blood Pressure” value [2] was 66.4 ± 3.6 mm Hg, the “Heart Rate” value [2] was 82.2 ± 4.7 beats/min and the “Systolic Blood Pressure” value [2] was 119.1 ± 6.1 mm Hg. The tolerability (patients with ischemic heart disease / heart failure) was “well tolerated”.
